Where two headings read alike, the source gives them in different places.
Test system: HBV
Assay: microbe, parasite or virus in culture
Description: Direct inhibition of viral replication was evaluated by monitoring the levels of secreted HBV DNA and the levels of HBV surface antigen (HBsAg) in cultures containing HBV infected HepaRG cells.
After three days incubation, the combined medium was replaced with differentiation medium and the cells were maintained in the differentiation medium for an additional 2 to 4 weeks. The differentiation medium was renewed every 2 to 3 days throughout the incubation period. Differentiated HepaRG cells (HepaRGd) display hepatocyte-like cell islands surrounded by monolayer of biliary-like cells. Prior to HBV infection and compound treatment, HepaRGd cells were seeded into collagen I coated 96-well plates (Gibco, Cat# A11428-03) at 50,000 to 60,000 cells per well. Cells were allowed to recover their differentiated phenotype in 96-well plates for at least 1 week after plating prior to HBV infection.
HBV inoculum was collected from HepG2.2.15 cultured cells, a cell line that supports HBV (genotype D, strain ayw) replication and virion secretion as disclosed in Sells M A., et al., PNAS, 84(4): 1005-1009. HepG2.2.15 cells were maintained in DMEM+GlutaMAX-I (Invitrogen) containing 1× Pen/Strep (Invitrogen), 10% FBS, and 0.25 mg/ml G-418 (Invitrogen) using hyperflasks (Corning) pre-coated with collagen I (BD Biosciences). Upon reaching confluency, HepG2.2.15 culture media was replaced with DMEM+GlutaMAX-I containing 1× Pen-Strep, 2.5% FBS, and 1% DMSO for 3 days and then replaced with DMEM+GlutaMAX-I containing 1× Pen-Strep and 1% DMSO. The 1% DMSO containing media was collected every 3 to 4 days over a two week period and HBV infectious virions and subviral particles were pelleted by ultracentrifugation through a 20% sucrose cushion in a Ti 45 Beckman rotor at 45,000 rpm for 3 hours at 4° C. The pellets were resuspended in WEM at a concentration of 10^8-10^9 genome equivalents (GE) per ml, determined by real time PCR as described below using a genotype D HBV containing plasmid DNA as an internal standard. To evaluate the infectivity of the inoculum, HepaRGd cells in 96-well plates were infected in differentiation medium containing 50 to 200 GE/cell and 4% PEG 8000 (PolyEthylene Glycol 8000, Sigma, Cat# P5413-500G) for 16 hr at 37° C. At the end of the infection, HBV inoculum was removed and cells were washed 3 times with differentiation medium. Differentiation medium was replenished every 2 to 3 days and HBV replication was monitored by measuring secreted HBV DNA, hepatitis B surface (HBsAg) and/or e (HBeAg) antigens.
HBsAg was detected from 50 μL of HBV infected HepaRG supernatants using the HBsAg chemiluminescence immunoassay (CLIA) kit following instructions as recommended by the manufacturer (Autobio Diagnostics Co., Zhengzhou, China). HBV DNA was extracted from 50 μL of HBV infected HepaRGd supernatants using the MagNA Pure 96 DNA and Viral NA Small Volume Kit (Roche, Cat#05 467 497 001). […] All PCR reactions were performed using the ViiA7 Real Time PCR system (Life Technologies).
Both direct and indirect inhibitory activity of HBV replication was measured. […] Aliquots of these reagents were added to independent wells of a 96-well culture plate containing HBV infected HepaRGd cells on day 4 post infection. The final concentration of DMSO in each well was 2%. The HepaRGd cells used in the inhibition study were maintained in differentiation media containing 2% DMSO.

For `Nc1nc2c(sc(=O)n2[C@@H]2O[C@H](CO)C[C@H]2O)c(=O)[nH]1` [R06871765], the EC50 (Hepatitis B virus, 168 h, read-out: EC50 (HBV DNA or HBsAg)) was over 200 µM, the CC50 (Hepatitis B virus, read-out: EC/CC50 (μM), HBV DNA) was over 200 µM and the CC50 (Hepatitis B virus, read-out: EC/CC50 (μM), HBsAg) was over 200 µM. It also gave an inhibition at 0.82 µM (Hepatitis B virus, read-out: HBV DNA (% inhibition), 0.82 μM, EXP ID 10/15/2012 AL) of -1.24%, an inhibition at 0.82 µM (Hepatitis B virus, read-out: HBV DNA (% inhibition), 0.82 μM, EXP ID 11/1/2012) of 12.2% and an inhibition at 2.47 µM (Hepatitis B virus, read-out: HBV DNA (% inhibition), 2.47 μM, EXP ID 10/15/2012 AL) of -16%. For the same compound, the inhibition at 2.47 µM (Hepatitis B virus, read-out: HBV DNA (% inhibition), 2.47 μM, EXP ID 11/1/2012) was -0.77%, the inhibition at 7.41 µM (Hepatitis B virus, read-out: HBV DNA (% inhibition), 7.41 μM, EXP ID 10/15/2012 AL) was -17.4% and the inhibition at 7.41 µM (Hepatitis B virus, read-out: HBV DNA (% inhibition), 7.41 μM, EXP ID 11/1/2012) was -23.5%. It also gave an inhibition at 22.22 µM (Hepatitis B virus, read-out: HBV DNA (% inhibition), 22.22 μM, EXP ID 10/15/2012 AL) of 4.96%, an inhibition at 22.22 µM (Hepatitis B virus, read-out: HBV DNA (% inhibition), 22.22 μM, EXP ID 11/1/2012) of 5.69% and an inhibition at 66.67 µM (Hepatitis B virus, read-out: HBV DNA (% inhibition), 66.67 μM, EXP ID 10/15/2012 AL) of -0.65%. For the same compound, the inhibition at 66.67 µM (Hepatitis B virus, read-out: HBV DNA (% inhibition), 66.67 μM, EXP ID 11/1/2012) was 21.1%, the inhibition at 200 µM (Hepatitis B virus, read-out: HBV DNA (% inhibition), 200 μM, EXP ID 10/15/2012 AL) was 12.2% and the inhibition at 200 µM (Hepatitis B virus, read-out: HBV DNA (% inhibition), 200 μM, EXP ID 11/1/2012) was 3.11%. The inhibition at 0.82 µM (Hepatitis B virus, read-out: HBsAg (% inhibition), 0.82 μM, EXP ID 10/15/2012 AL) was 10.5%, the inhibition at 0.82 µM (Hepatitis B virus, read-out: HBsAg (% inhibition), 0.82 μM, EXP ID 10/15/2012 VL) was 14.7% and the inhibition at 0.82 µM (Hepatitis B virus, read-out: HBsAg (% inhibition), 0.82 μM, EXP ID 11/1/2012) was 14.8%. It also gave an inhibition at 2.47 µM (Hepatitis B virus, read-out: HBsAg (% inhibition), 2.47 μM, EXP ID 10/15/2012 AL) of -4.7%, an inhibition at 2.47 µM (Hepatitis B virus, read-out: HBsAg (% inhibition), 2.47 μM, EXP ID 10/15/2012 VL) of 11.8% and an inhibition at 2.47 µM (Hepatitis B virus, read-out: HBsAg (% inhibition), 2.47 μM, EXP ID 11/1/2012) of 14.7%. The inhibition at 7.41 µM (Hepatitis B virus, read-out: HBsAg (% inhibition), 7.41 μM, EXP ID 10/15/2012 AL) was -11.7%, the inhibition at 7.41 µM (Hepatitis B virus, read-out: HBsAg (% inhibition), 7.41 μM, EXP ID 10/15/2012 VL) was 3.92% and the inhibition at 7.41 µM (Hepatitis B virus, read-out: HBsAg (% inhibition), 7.41 μM, EXP ID 11/1/2012) was 1.81%. For the same compound, the inhibition at 22.22 µM (Hepatitis B virus, read-out: HBsAg (% inhibition), 22.22 μM, EXP ID 10/15/2012 AL) was 0.44%, the inhibition at 22.22 µM (Hepatitis B virus, read-out: HBsAg (% inhibition), 22.22 μM, EXP ID 10/15/2012 VL) was 3.98% and the inhibition at 22.22 µM (Hepatitis B virus, read-out: HBsAg (% inhibition), 22.22 μM, EXP ID 11/1/2012) was 0.66%. For the same compound, the inhibition at 66.67 µM (Hepatitis B virus, read-out: HBsAg (% inhibition), 66.67 μM, EXP ID 10/15/2012 AL) was -2.13%, the inhibition at 66.67 µM (Hepatitis B virus, read-out: HBsAg (% inhibition), 66.67 μM, EXP ID 10/15/2012 VL) was 14.5% and the inhibition at 66.67 µM (Hepatitis B virus, read-out: HBsAg (% inhibition), 66.67 μM, EXP ID 11/1/2012) was 5.02%. It also gave an inhibition at 200 µM (Hepatitis B virus, read-out: HBsAg (% inhibition), 200 μM, EXP ID 10/15/2012 AL) of 2.48%, an inhibition at 200 µM (Hepatitis B virus, read-out: HBsAg (% inhibition), 200 μM, EXP ID 10/15/2012 VL) of 4.25% and an inhibition at 200 µM (Hepatitis B virus, read-out: HBsAg (% inhibition), 200 μM, EXP ID 11/1/2012) of 16%. The “direct inhibition of HBV viral replication” value (cultured HepaRG cells) was “did not exert any direct anti-HBV effect”, the CC50 (read-out: EC/CC50 (μM), HBV DNA, EXP ID 11/1/2012) was over 200 µM and the CC50 (read-out: EC/CC50 (μM), HBsAg, EXP ID 10/15/2012 VL) was over 200 µM. It also gave a CC50 (read-out: EC/CC50 (μM), HBsAg, EXP ID 11/1/2012) of over 200 µM.
